Source: patent publication US9410958B2, “Alkyne-activated fluorogenic azide compounds and methods of use thereof” (The Regents of the University of California, priority 2014, dated 2016)

Legend:
[1] = tested on: fixed HEK 293T cells; experiment: No-wash labeling of glycoproteins on fixed cells; format: cell-based; details: 10 μM probe, 100 μM TBTA, 1 mM CuSO4, 2 mM sodium ascorbate
Procedure: (A) Labeling glycoproteins on live cell surfaces. […] (B) Labeling glycoproteins on fixed cells.
Fixed (3% paraformaldehyde) Ac4ManNAl-treated HEK 293T cells were also evaluated as substrates CalFluor labeling. In this case, copper-click reaction with 50 μM CuSO4 and 300 μM BTTAA gave poor labeling, potentially due to sequestration of the copper catalyst by denatured proteins. However, use of higher catalyst concentrations (100 μM TBTA, 1 mM CuSO4, 2 mM sodium ascorbate) gave robust labeling with 10 μM CalFluor dyes (FIG. 34B). […] Similar results were achieved when performing the same experiments on fixed CHO K1 cells.

[2] = tested on: sialic acids in developing zebrafish; experiment: Visualizing sialic acids in developing zebrafish; format: in vivo; details: 24 or 36 hpf, imaged without washing
Procedure: The probes were tested for visualization of glycans in vivo. […] To test the utility of CalFluors in this system for such applications, zebrafish embryos at the single-cell stage were injected with SiaNAl. After either 24 or 36 hours post fertilization (hpf), the embryos were bathed in a solution containing a CalFluor probe along with copper catalyst.
Zebrafish were injected with 50 pmol SiaNAl at the one to four-cell stage and allowed to develop over time. (A) Real-time labeling of sialic acids. After 24 hpf, zebrafish were incubated in a solution containing 1 μM CalFluor 580 and copper catalyst. […] (B) Comparing no-wash labeling performance by azide probes. After 36 hpf, the embryos were transferred to a solution containing the fluorophore (1 μM for CalFluor 580 and AlexaFluor 594 alkyl azide, or 5 μM for 3-azido-7-hydroxycoumarin) and copper catalyst and imaged without washing after 20 minutes.

[3] = Photophysical properties and fluorescence quantum yields of Si-rhodamines in PBS pH 7.4; format: physicochemical
Procedure: The fluorescence quantum yields of the purified amino, azido, and triazolyl Si-rhodamines were measured in pH 7.4 phosphate buffered saline (PBS) using cresyl violet in methanol (Φfl=0.54) as a standard (Table 1). […] The best candidate of the four, 8-azidonaphthyl-substituted Si-rhodamine 1, afforded only a 5-fold increase in fluorescence quantum yield as compared with the 29-fold enhancement observed with the corresponding fluorescein.
Fluorescence quantum yields were measured by creating 2 mM stocks of dyes in MeOH. The dyes were then diluted to 20 μM in PBS, then further diluted in PBS to various final concentrations. The absorbance and emission spectra of five different concentrations of dye were measured while keeping maximum absorbance under 0.2. Solutions of probe were excited at 600 nm, and emission was integrated from 600 to 800 nm. Plotting integrated emission vs. absorbance at 600 nm yielded a line, whose slope corresponds to the fluorescence quantum yield. Absolute quantum yields were determined by comparison with the slope of the line measured for cresyl violet in MeOH (Φfl=0.54). The reported quantum yields are the average of three sets of measurements. Absorbance spectra were recorded on a Varian Cary 50 UV-Visible spectrophotometer. Fluorescence spectra were recorded on a Photon Technology International Quanta Master 4 L-format scanning spectrofluorometer equipped with an LPS-220B 75-W xenon lamp and power supply, A-1010B lamp housing with an integrated igniter, switchable 814 photon counting/analog photomultiplier detection unit, and MD5020 motor driver. Measurements were made in 1 cm×0.4 cm quartz cuvettes with a total sample volume of 1 mL.

[4] = tested on: mammalian cells; experiment: Mammalian cell surface labeling of Ac4ManNAl-treated cells; format: cell-based; details: cells labeled with Ac4ManNAl
Procedure: Compound 9 was tested as a biological imaging reagent using mammalian cells that had been metabolically labeled with peracetylated N-pentynoylmannosamine (Ac4ManNAl), which is metabolized to N-pentynoyl sialic acid (SiaNAl) and presented on cell-surface glycoconjugates. […] It was hypothesized that replacing the methoxy groups with more water soluble alkoxy substituents would maintain the electronic balance between the pendant aryl and the Si-xanthene moieties while enhancing hydrophilicity. To this end, compound 10 was synthesized in six steps from 2,4-difluoronitrobenzene (FIG. 5, and Scheme 1).
Finally, 2.5 μL 1 mM azido fluorophore in 4:1 PBS/MeOH was added. […] Microscopy was performed using a Zeiss AxioVert 200M inverted microscope using a Plan-Neofluar 40×/0.75 objective. Exposure time was 1000 ms using the FITC, Cy3, or Cy5 filters. Images were acquired and processed using SlideBook 5.0, and are shown as a single z-plane.

[5] = tested on: CHO K1 cells; experiment: No-wash cell surface labeling of SiaNAl residues, CHO K1; format: cell-based
Procedure: Si-rhodamine 10 was evaluated as a reagent for imaging SiaNAl residues on live cell surfaces. CHO K1 cells were incubated with 50 μM Ac4ManNAl for 3 days, washed, and then incubated with 5 μM 10, 50 μM CuSO4, 300 μM BTTAA, and 1 mM sodium ascorbate. […] Cell-surface glycan labeling was visualized as it occurred in real time (FIG. 14). Background labeling was minimal on control cells treated with N-acetylmannosamine (Ac4ManNAc) (FIG. 13).

[6] = tested on: M. smegmatis, C. glutamicum, L. monocytogenes; experiment: No-wash peptidoglycan labeling with compound 11; format: cell-based; details: endobcnDala 14-treated, 10 or 20 μM probe, 1 hour
Procedure: Finally, the bacteria were imaged using the NIR fluorogenic azide probes. It was confirmed that azido Si-rhodamines 9, 10, and 11 would undergo an enhancement in fluorescence upon reaction with cyclooctynes. These probes were incubated with endo-bicyclononynol in vitro to generate triazole products (FIG. 24A). […] All three bacterial strains were incubated with endobcnDala 14 as before, but after washing away excess amino acid, the bacteria were incubated with 10 or 20 μM 11 for 1 hour and directly imaged without washing away excess probe (FIG. 7B). […] While the biosynthetic machinery can tolerate fluorophore-conjugated D-amino acids, allowing one-step PG imaging versus our two-step metabolic/chemical labeling approach, chemical reporter groups are much smaller than long-wavelength fluorophores and therefore minimize possible biological perturbations. […] It is hypothesized that the presence of an outer membrane (though apparently not a mycobacterial “mycomembrane”, FIG. 8A-D) limits access of compound 11 to PG. By contrast, smaller dyes were able to access both terminal alkynes and cyclooctynes in metabolically labeled E. coli PG (FIG. 27).
The bacteria were incubated with either endobcnDala or Dala and washed as described above. […]

[7] = tested on: Escherichia coli; experiment: No-wash peptidoglycan labeling of Gram-negative Escherichia coli; format: cell-based
Procedure: E. coli incubated with 5 mM endobcnDala or Dala for 2 h from a starting OD of 0.05 and imaged in the presence of 20 μM of azido Si-rhodamine 11 as described above. Only a fraction of the bacteria incubated with endobcnDala were fluorescently labeled under these conditions. (A), (C) Fluorescence and brightfield images of E. coli incubated with 5 mM endobcnDala. (B), (D) Fluorescence and brightfield images of E. coli incubated with 5 mM Dala. Scale bar=10 μm. […] Scale bar=1 μm.
Finally, the bacteria were imaged using the NIR fluorogenic azide probes. It was confirmed that azido Si-rhodamines 9, 10, and 11 would undergo an enhancement in fluorescence upon reaction with cyclooctynes. These probes were incubated with endo-bicyclononynol in vitro to generate triazole products (FIG. 24A). […] All three bacterial strains were incubated with endobcnDala 14 as before, but after washing away excess amino acid, the bacteria were incubated with 10 or 20 μM 11 for 1 hour and directly imaged without washing away excess probe (FIG. 7B). […] While the biosynthetic machinery can tolerate fluorophore-conjugated D-amino acids, allowing one-step PG imaging versus our two-step metabolic/chemical labeling approach, chemical reporter groups are much smaller than long-wavelength fluorophores and therefore minimize possible biological perturbations. […]

[8] = tested on: HEK 293T cells; experiment: No-wash live cell surface labeling and mitochondrial co-staining, HEK 293T
Procedure: Cells were grown in 8-well Lab-Tek Chambered Coverglass systems in media (HAM-F12 for CHO K1 cells, DMEM for HEK 293T cells) containing 10% fetal bovine serum, penicillin/streptomycin, and either 50 μM Ac4ManNAl or Ac4ManNAc for 3 d at 37° C., as described previously. The cells were then washed with 3×300 μL PBS, then incubated with 100 μL freshly prepared click solution. Click solution comprised of 50 μM CuSO4, 300 μM BTTAA, 2.5 mM sodium ascorbate, and 5 μM azido Si-rhodamine. This was prepared by first adding 0.5 μL 50 mM CuSO4 in H2O and 3 μL 50 mM BTTAA in H2O to 481.5 μL PBS. Next, 12.5 μL freshly prepared 100 mM sodium ascorbate in PBS was added. Finally, 2.5 μL 1 mM azido Si-rhodamine in 4:1 PBS/MeOH was added. After 15 min, the reactions were quenched with the addition of 1 μL of 100 mM bathocuproine disulfonate (BCS) in H2O (final concentration 1 mM). […] For real-time imaging, images were acquired as the labeling progressed without quenching the reaction.
HEK 293T cells were grown in a LabTek 8-well chambered glass slide in DMEM containing fetal bovine serum, penicillin/streptomycin for 3 d at 37° C. The cells were then incubated with 100 nM MitoTracker Green FM and 1 μg/mL Hoechst 33342 in fresh media for 30 min at 37° C., then media removed and the cells incubated with 100 μL PBS containing 5 μM 10. The cells were then directly imaged.
The CalFluors' performance in no-wash cell imaging experiments was evaluated. Using established methods, cell-surface glycoconjugates were metabolically labeled with peracetylated N-pentynoyl mannosamine (Ac4ManNAl), which introduces terminal alkyne groups into sialic acid residues (SiaNAl). HEK 293T cells treated in this fashion were then incubated, without fixation, with a cocktail containing 50 μM CuSO4, 300 μM BTTAA, 5 mM sodium ascorbate and 10 μM CalFluor dye.
Cells were grown with 50 μM Ac4ManNAl or Ac4ManNAc for 3 days, then subjected to click labeling with CalFluor probes. (A) Labeling glycoproteins on live cell surfaces. Cells were treated with 10 μM azide probe, 50 μM CuSO4, 300 μM BTTAA ligand, and 5 mM sodium ascorbate. The reaction was quenched with 1 mM BCS and the cells imaged without further wash steps. (B) Labeling glycoproteins on fixed cells. Cells were fixed with 3% paraformaldehyde, then treated with 10 μM CalFluor probe, 1 mM CuSO4, 100 μM TBTA ligand, and 2 mM sodium ascorbate. 0.1 mg/mL BSA was added to prevent the TBTA from precipitating over the course of the reaction.

[9] = tested on: wild-type L. monocytogenes; experiment: D-alanine competition experiment; details: 5 mM cyclooctyne amino acid, 0 or 20 mM D-alanine
Procedure: The bacteria were incubated with 5 mM cyclooctyne amino acid, in the presence of either 0 or 20 mM D-alanine, and labeled following the general procedure.
Bacteria were grown to an optical density (OD) of 0.4 in their respective media (7H9 for M. smegmatis, LB for C. glutamicum, BHI for L. monocytogenes) at 37° C. (M. smegmatis and L. monocytogenes) or 30° C. (C. glutamicum). Then, 5 mM D-amino acid was added (from a 1 M stock in H2O, 1 eq. NaOH was added to help solubilize compounds 12, 13, and 14) and the cells grown for one doubling time. The bacteria were then added to a 96-well V-bottom plate at 200 μL/well and pelleted by centrifugation at 3500 rpm for 3 min. The supernatant was removed and the cells resuspended in 200 μL PBS and pelleted again. This wash process was repeated twice more. The cells were then incubated with 100 μL of 20 μM azido-PEG3-carboxyrhodamine 110 (Click Chemistry Tools) in PBS (made by diluting a 1 mM stock in 9:1 PBS/DMSO) and placed in a 37° C. shaker for 1 h. Alternatively, for alkDala, labeling was performed by incubation with 100 μL of 20 μM azido-PEG3-carboxyrhodamine 110, 128 μM TBTA, 1 mM CuSO4, and 1.2 mM sodium ascorbate in PBS in a 37° C. shaker for 1 h. The cells were washed three times, then fixed with 4% paraformaldehyde for 10 min at rt. The cells were washed another three times, then studied by flow cytometry and microscopy.

[10] = in methanol; cited from earlier work

In the case of `[N-]=[N+]=Nc1cc2ccc(O)cc2oc1=O`, the “labeling of fixed cells” value [1] is reported as “performed comparably to the CalFluors” and the no-wash alkyne-dependent labeling [2] is reported as “obscured alkyne-dependent labeling”.

With `COc1cc(OC)c(C2=C3C=CC(=[N+](C)C)C=C3[Si](C)(C)c3cc(N(C)C)ccc32)cc1N=[N+]=[N-]` [Compound 9-N3, 3-Azido-4,6-dimethoxy-Si-rhodamine] the λabs [3] was 654 nm, the λem [3] was 666 nm and the Φfl ([3]; cresyl violet in methanol as standard) was 0.0042. For the same molecule, the “Change in Φfl” value ([3]; increase (↑), triazole relative to the azide) was 48 fold and the background labeling [4] was “significant alkyne-independent background labeling even after repeated washing steps”.

For `CN(C)c1ccc2c(c1)[Si](C)(C)C1=CC(=[N+](C)C)C=CC1=C2c1cc(N=[N+]=[N-])c(OCCOCCOS(=O)(=O)O)cc1OCCOCCOS(=O)(=O)[O-]` [Compound 11], the cell-surface labeling ([5]; Ac4ManNAl-treated CHO K1, no wash, 15 min) was “robust cell-surface labeling”, the background labeling ([5]; CHO K1, control or unwanted labeling) was “no unwanted background or mitochondrial labeling” and the “no-wash fluorescence signal on bacteria” value [6] was “Clear fluorescence signal over background”. The “labeling of peptidoglycan with dye” value ([7]; 5 mM endobcnDala, 20 μM probe) was “not efficiently labeled”, the cell-surface labeling ([8]; Ac4ManNAl-treated HEK 293T, no wash) was “robust cell-surface labeling” and the “background, intracellular or mitochondrial labeling” value ([8]; HEK 293T) was “no unwanted background or mitochondrial labeling”. The cell permeability ([8]; HEK 293T) was “not cell permeable”.

For `NC(CNC(=O)OC[C@@H]1[C@@H]2CCC#CCC[C@@H]21)C(=O)O` (some centres unmarked) [Compound 14], the “metabolic incorporation of D-amino acid” value [7] was “similarly to the Gram-positive bacteria” and the “effect of excess D-alanine on labeling” value [9] was “excess D-alanine decreases the fluorescence intensity”.

For cresyl violet, the “Φfl of the standard” value [10] is given as 0.54.
